Test results reported in PubChem BioAssay AID2060896 (Molecular Pharmacology Branch, DTP, NCI, 2025).

System: 941728-121-R-J1-PDC complex spheroid viability
Assay: Anticancer human tumor 941728-121-R-J1-PDC patient-derived lung adenocarcinoma cell line growth inhibition [RAS]
Conditions: for IC50: curve of first compound; for viability, T/C: stronger effect = lower value
Summary of the method: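 Multi-cell-type spheroids: tumor cells plus HUVEC endothelial cells and mesenchymal stem cells. RAS-pathway inhibitors were combined with targeted agents, each dosed in half-log steps down from clinical Cmax, or from 10 microM when Cmax was unknown.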

[1] = second compound 0.000949 µM, first compound 0.00316 µM
[2] = second compound 0.000949 µM, first compound 0.01 µM
[3] = second compound 0.000949 µM, first compound 0.0316 µM
[4] = second compound 0.000949 µM, first compound 0.1 µM
[5] = second compound 0.003 µM, first compound 0.00316 µM
[6] = second compound 0.003 µM, first compound 0.01 µM
[7] = second compound 0.003 µM, first compound 0.0316 µM
[8] = second compound 0.003 µM, first compound 0.1 µM
[9] = second compound 0.00949 µM, first compound 0.00316 µM
[10] = second compound 0.00949 µM, first compound 0.01 µM
[11] = second compound 0.00949 µM, first compound 0.0316 µM
[12] = second compound 0.00949 µM, first compound 0.1 µM
[13] = second compound 0.03 µM, first compound 0.00316 µM
[14] = second compound 0.03 µM, first compound 0.01 µM
[15] = second compound 0.03 µM, first compound 0.0316 µM
[16] = second compound 0.03 µM, first compound 0.1 µM
[17] = second compound 0.0949 µM, first compound 0.00316 µM
[18] = second compound 0.0949 µM, first compound 0.01 µM
[19] = second compound 0.0949 µM, first compound 0.0316 µM
[20] = second compound 0.0949 µM, first compound 0.1 µM
[21] = second compound 0.3 µM, first compound 0.00316 µM
[22] = second compound 0.3 µM, first compound 0.01 µM
[23] = second compound 0.3 µM, first compound 0.0316 µM
[24] = second compound 0.3 µM, first compound 0.1 µM
[25] = second compound 0.000949 µM, first compound 0.316 µM
[26] = second compound 0.000949 µM, first compound 1 µM
[27] = second compound 0.000949 µM, first compound 3.16 µM
[28] = second compound 0.000949 µM, first compound 10 µM
[29] = second compound 0.003 µM, first compound 0.316 µM
[30] = second compound 0.003 µM, first compound 1 µM
[31] = second compound 0.003 µM, first compound 3.16 µM
[32] = second compound 0.003 µM, first compound 10 µM
[33] = second compound 0.00949 µM, first compound 0.316 µM
[34] = second compound 0.00949 µM, first compound 1 µM
[35] = second compound 0.00949 µM, first compound 3.16 µM
[36] = second compound 0.00949 µM, first compound 10 µM
[37] = second compound 0.03 µM, first compound 0.316 µM
[38] = second compound 0.03 µM, first compound 1 µM
[39] = second compound 0.03 µM, first compound 3.16 µM
[40] = second compound 0.03 µM, first compound 10 µM
[41] = second compound 0.0949 µM, first compound 0.316 µM
[42] = second compound 0.0949 µM, first compound 1 µM
[43] = second compound 0.0949 µM, first compound 3.16 µM
[44] = second compound 0.0949 µM, first compound 10 µM
[45] = second compound 0.3 µM, first compound 0.316 µM
[46] = second compound 0.3 µM, first compound 1 µM
[47] = second compound 0.3 µM, first compound 3.16 µM
[48] = second compound 0.3 µM, first compound 10 µM
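Also: spheroids exposed to compounds for 7 days before readout.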
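For viability, T/C in this document: 100% = DMSO vehicle control viability.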

Work on CC(C)n1nc(-c2ccc3oc(N)nc3c2)c2c(N)ncnc21 + CCn1c(-c2cc(N3CCN(C)CC3)cnc2C(C)OC)c2c3cc(ccc31)-c1csc(n1)CC(NC(=O)C1CC1C)C(=O)N1CCCC(N1)C(=O)OCC(C)(C)C2 yielded an IC50 (second compound 0.000949 µM) of less than 0.316 nM, an IC50 (second compound 0.003 µM) of less than 0.316 nM and an IC50 (second compound 0.00949 µM) of less than 0.316 nM. It also gave an IC50 (second compound 0.03 µM) of less than 0.316 nM, an IC50 (second compound 0.0949 µM) of less than 0.316 nM and an IC50 (second compound 0.3 µM) of less than 0.316 nM. For the same molecule, the viability, T/C (second compound 0.000949 µM, first compound 0.000316 µM) was 25.5%, the viability, T/C (second compound 0.000949 µM, first compound 0.001 µM) was 27.6% and the viability, T/C [1] was 18.6%. For the same molecule, the viability, T/C [2] was 20.2%, the viability, T/C [3] was 16.9% and the viability, T/C [4] was 11.1%. It also gave a viability, T/C (second compound 0.003 µM, first compound 0.000316 µM) of 24.6%, a viability, T/C (second compound 0.003 µM, first compound 0.001 µM) of 20.8% and a viability, T/C [5] of 16%. For the same molecule, the viability, T/C [6] was 14.4%, the viability, T/C [7] was 10.9% and the viability, T/C [8] was 8.48%. It also gave a viability, T/C (second compound 0.00949 µM, first compound 0.000316 µM) of 17.6%, a viability, T/C (second compound 0.00949 µM, first compound 0.001 µM) of 16% and a viability, T/C [9] of 16.3%. The viability, T/C [10] was 11.6%, the viability, T/C [11] was 8.78% and the viability, T/C [12] was 5.45%. It also gave a viability, T/C (second compound 0.03 µM, first compound 0.000316 µM) of 13.4%, a viability, T/C (second compound 0.03 µM, first compound 0.001 µM) of 14.6% and a viability, T/C [13] of 13.4%. It also gave a viability, T/C [14] of 10.7%, a viability, T/C [15] of 6.44% and a viability, T/C [16] of 6.86%. The viability, T/C (second compound 0.0949 µM, first compound 0.000316 µM) was 12.7%, the viability, T/C (second compound 0.0949 µM, first compound 0.001 µM) was 14.2% and the viability, T/C [17] was 12.8%. The viability, T/C [18] was 11.6%, the viability, T/C [19] was 6.3% and the viability, T/C [20] was 6.4%. The viability, T/C (second compound 0.3 µM, first compound 0.000316 µM) was 13.4%, the viability, T/C (second compound 0.3 µM, first compound 0.001 µM) was 13.9% and the viability, T/C [21] was 12.9%. For the same molecule, the viability, T/C [22] was 11.2%, the viability, T/C [23] was 7.62% and the viability, T/C [24] was 7.03%.
In the case of CC1(O)CCCC1n1c(=O)c(C(F)F)cc2cnc(NC3CCN(S(C)(=O)=O)CC3)nc21 (stereo not drawn) + CCn1c(-c2cc(N3CCN(C)CC3)cnc2C(C)OC)c2c3cc(ccc31)-c1csc(n1)CC(NC(=O)C1CC1C)C(=O)N1CCCC(N1)C(=O)OCC(C)(C)C2, the IC50 (second compound 0.000949 µM) is reported as less than 31.6 nM, the IC50 (second compound 0.003 µM) is reported as less than 31.6 nM and the IC50 (second compound 0.00949 µM) is reported as less than 31.6 nM. It also gave an IC50 (second compound 0.03 µM) of less than 31.6 nM, an IC50 (second compound 0.0949 µM) of less than 31.6 nM and an IC50 (second compound 0.3 µM) of less than 31.6 nM. For the same molecule, the viability, T/C [3] was 28.6%, the viability, T/C [4] was 30.3% and the viability, T/C [25] was 24.8%. For the same molecule, the viability, T/C [26] was 38.3%, the viability, T/C [27] was 34.9% and the viability, T/C [28] was 31.3%. The viability, T/C [7] was 24.4%, the viability, T/C [8] was 20.1% and the viability, T/C [29] was 18.4%. For the same molecule, the viability, T/C [30] was 22.3%, the viability, T/C [31] was 23.3% and the viability, T/C [32] was 26.9%. For the same molecule, the viability, T/C [11] was 16.5%, the viability, T/C [12] was 13.6% and the viability, T/C [33] was 15.9%. It also gave a viability, T/C [34] of 17.5%, a viability, T/C [35] of 15.6% and a viability, T/C [36] of 28.4%. For the same molecule, the viability, T/C [15] was 13.4%, the viability, T/C [16] was 12.6% and the viability, T/C [37] was 13.5%. The viability, T/C [38] was 14.4%, the viability, T/C [39] was 9.96% and the viability, T/C [40] was 27.3%. For the same molecule, the viability, T/C [19] was 11.1%, the viability, T/C [20] was 14.5% and the viability, T/C [41] was 14.3%. For the same molecule, the viability, T/C [42] was 14.8%, the viability, T/C [43] was 9.56% and the viability, T/C [44] was 27.7%. It also gave a viability, T/C [23] of 10.4%, a viability, T/C [24] of 11.6% and a viability, T/C [45] of 13.3%. For the same molecule, the viability, T/C [46] was 15.2%, the viability, T/C [47] was 12.2% and the viability, T/C [48] was 23.8%.
With CCN1CCN(Cc2ccc(Nc3ncc(F)c(-c4cc(F)c5nc(C)n(C(C)C)c5c4)n3)nc2)CC1 + CCn1c(-c2cc(N3CCN(C)CC3)cnc2C(C)OC)c2c3cc(ccc31)-c1csc(n1)CC(NC(=O)C1CC1C)C(=O)N1CCCC(N1)C(=O)OCC(C)(C)C2 the IC50 (second compound 0.000949 µM) was less than 3.16 nM, the IC50 (second compound 0.003 µM) was less than 3.16 nM and the IC50 (second compound 0.00949 µM) was less than 3.16 nM. The IC50 (second compound 0.03 µM) was less than 3.16 nM, the IC50 (second compound 0.0949 µM) was less than 3.16 nM and the IC50 (second compound 0.3 µM) was less than 3.16 nM. For the same molecule, the viability, T/C [1] was 27%, the viability, T/C [2] was 29.4% and the viability, T/C [3] was 18.9%. The viability, T/C [4] was 27.1%, the viability, T/C [25] was 23.3% and the viability, T/C [26] was 16.6%. It also gave a viability, T/C [5] of 22.8%, a viability, T/C [6] of 19.8% and a viability, T/C [7] of 14.4%. It also gave a viability, T/C [8] of 18.9%, a viability, T/C [29] of 17.7% and a viability, T/C [30] of 9.4%. It also gave a viability, T/C [9] of 15.1%, a viability, T/C [10] of 13.4% and a viability, T/C [11] of 13.7%. It also gave a viability, T/C [12] of 11.1%, a viability, T/C [33] of 12.1% and a viability, T/C [34] of 10.4%. It also gave a viability, T/C [13] of 13.2%, a viability, T/C [14] of 14.1% and a viability, T/C [15] of 11.8%. For the same molecule, the viability, T/C [16] was 10.1%, the viability, T/C [37] was 6.16% and the viability, T/C [38] was 11.3%. For the same molecule, the viability, T/C [17] was 13.4%, the viability, T/C [18] was 11.8% and the viability, T/C [19] was 10.1%. The viability, T/C [20] was 9.14%, the viability, T/C [41] was 7.16% and the viability, T/C [42] was 9.08%. The viability, T/C [21] was 11.3%, the viability, T/C [22] was 11.9% and the viability, T/C [23] was 11.7%. The viability, T/C [24] was 8.41%, the viability, T/C [45] was 6.3% and the viability, T/C [46] was 10.6%.
C[C@@H](NC(=O)c1ncnc(N)c1Cl)c1ncc(C(=O)Nc2cc(C(F)(F)F)c(Cl)cn2)s1 + CCn1c(-c2cc(N3CCN(C)CC3)cnc2C(C)OC)c2c3cc(ccc31)-c1csc(n1)CC(NC(=O)C1CC1C)C(=O)N1CCCC(N1)C(=O)OCC(C)(C)C2 gave an IC50 (second compound 0.000949 µM) of less than 31.6 nM, an IC50 (second compound 0.003 µM) of less than 31.6 nM and an IC50 (second compound 0.00949 µM) of less than 31.6 nM. The IC50 (second compound 0.03 µM) was less than 31.6 nM, the IC50 (second compound 0.0949 µM) was less than 31.6 nM and the IC50 (second compound 0.3 µM) was less than 31.6 nM. The viability, T/C [3] was 28.7%, the viability, T/C [4] was 30.9% and the viability, T/C [25] was 22.4%. The viability, T/C [26] was 34%, the viability, T/C [27] was 33.6% and the viability, T/C [28] was 24.5%. It also gave a viability, T/C [7] of 27.8%, a viability, T/C [8] of 24.4% and a viability, T/C [29] of 22.4%. The viability, T/C [30] was 24.9%, the viability, T/C [31] was 27.9% and the viability, T/C [32] was 20%. For the same molecule, the viability, T/C [11] was 19.1%, the viability, T/C [12] was 15.5% and the viability, T/C [33] was 21.6%. The viability, T/C [34] was 21.9%, the viability, T/C [35] was 19.7% and the viability, T/C [36] was 17.9%. The viability, T/C [15] was 14.1%, the viability, T/C [16] was 16.5% and the viability, T/C [37] was 17.1%. The viability, T/C [38] was 15.4%, the viability, T/C [39] was 15.4% and the viability, T/C [40] was 14.9%. It also gave a viability, T/C [19] of 13.6%, a viability, T/C [20] of 15.7% and a viability, T/C [41] of 14.3%. It also gave a viability, T/C [42] of 14.3%, a viability, T/C [43] of 11.7% and a viability, T/C [44] of 13.6%. The viability, T/C [23] was 13.8%, the viability, T/C [24] was 13.7% and the viability, T/C [45] was 15.6%. The viability, T/C [46] was 13.8%, the viability, T/C [47] was 12.3% and the viability, T/C [48] was 11.9%.
